Experimental data from article PMC11720699, “Developing Allosteric Chaperones for GBA1-Associated Disorders—An Integrated Computational and Experimental Approach” (International Journal of Molecular Sciences, 2024).

How the values were obtained:
[1] = test system: monohexosylceramide (HexCer); assay: HexCer substrate quantification by LC/MS-MS in GD patient fibroblasts; assay type: cell-based, human; settings: L444P/L444P fibroblasts
Description: L444P/L444P fibroblasts have impaired GCase activity due to the presence of the mutation, resulting in the accumulation of toxic substrates, glucosylceramide (GlcCer), and other related sphingolipids in the lysosome. To evaluate the efficacy of the compounds in reducing substrate accumulation, we quantified monohexosylceramide (HexCer) species (including GluCer) after treatment of L444P/L444P fibroblasts with compounds 2 and 3. The accumulation and clearance of these substrates were measured by liquid chromatography-tandem mass spectrometry (LC/MS-MS), quantifying the total HexCer species. […] Moreover, at higher concentrations, it inhibited GCase activity (Figure 5A), leading to increased accumulation of HexCer (Figure 5C).
For fibroblast samples, cell pellets were dissolved in 150 µL of methanol containing 0.5% formic acid and 1 µM GalCer-d35 (C18 Galactosylceramide-d35 [d18:1/18:0-d35]; 24467 Cayman, Ann Arbor, MI, USA) as an internal standard. The samples were shaken for 1 h and sonicated once for 4 s at 30% amplitude. The supernatant was then collected by centrifugation at 13,000 G for 5 min at 4 °C. Sphingolipid analysis was performed using UPLC with an Agilent 1290 Infinity II/QQQ G6475 mass spectrometer system. […] HexCer was monitored in multiple reaction monitoring (MRM) mode, quantifying the 728.6 > 710.5 m/z transition.

[2] = biological target: T1, GCase (Homo sapiens, UniProt P04062); assay: GCase biochemical activity assay in wild-type fibroblast lysates; parameters: endogenous in cells; host or cells: wild-type fibroblasts (lysate); settings: pH 5.6
T1 sequence (P04062 40-536): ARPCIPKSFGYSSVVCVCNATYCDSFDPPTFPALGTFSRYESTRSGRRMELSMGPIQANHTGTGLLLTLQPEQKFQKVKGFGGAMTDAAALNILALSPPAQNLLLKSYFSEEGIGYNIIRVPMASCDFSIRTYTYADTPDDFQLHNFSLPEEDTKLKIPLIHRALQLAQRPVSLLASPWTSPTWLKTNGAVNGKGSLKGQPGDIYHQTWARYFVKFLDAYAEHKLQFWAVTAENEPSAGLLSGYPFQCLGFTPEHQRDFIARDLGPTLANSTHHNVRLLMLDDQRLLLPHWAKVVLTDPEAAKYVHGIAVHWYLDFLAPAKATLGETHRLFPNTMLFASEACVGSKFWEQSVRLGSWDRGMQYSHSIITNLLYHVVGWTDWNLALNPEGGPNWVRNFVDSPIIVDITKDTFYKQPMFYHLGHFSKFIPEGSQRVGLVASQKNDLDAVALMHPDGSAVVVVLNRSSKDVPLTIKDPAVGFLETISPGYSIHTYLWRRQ
Description: Lysates were prepared from wild-type fibroblasts using a lysis buffer containing 0.9% NaCl and 0.01% Triton-X100. Protein concentration was measured with a BCA protein assay kit. The cell lysates were then incubated with the specified compound for 15 min. The assay was conducted in a reaction buffer with 5 mM 4-methylumbelliferyl-beta-D-glucopyranoside in 0.1 M citrate-phosphate buffer at pH 5.6. The reactions were incubated at 37 °C for 1 h. To stop the reaction, 140 µL of 100 mM Glycine-NaOH buffer at pH 10.7 was added. The released 4-MU was measured using a Glomax® Discover microplate reader, with excitation at 340 nm and emission at 460 nm.

[3] = NeuroPK: plasma and brain levels after i.v. administration; assay type: in vivo, male C57BL/6 mice; settings: mouse, i.v. 10 mg/kg
Description: Finally, we investigated whether compound 3 can cross the BBB and enter the central nervous system following intravenous (i.v.) administration. This is a preliminary step in developing the compound as a disease-modifying therapy for neuropathic GD and other neurological disorders linked to GBA mutations, such as PD and other synucleinopathies. Pharmacokinetics and brain penetrability were assessed by measuring the levels of compound 3 in brain tissue and plasma after intravenous administration (10 mg/kg) in wild-type mice.
The brain penetration of compound 3 following intravenous injection was evaluated as follows. Nine male C57BL/6 mice received an intravenous dose of 10 mg/kg of the compound in a solution formulation consisting of 5% v/v NMP (N-methyl-2-pyrrolidone), 10% v/v Solutol® HS-15, 30% v/v PEG-400, and […]. Blood samples (approximately 60 µL) were collected under light isoflurane anesthesia from three mice at each of the following time points: 0.25, 2, and 8 h. Plasma was obtained by centrifuging the blood and stored at −70 ± 10 °C until analysis. Brain samples were also collected from each mouse at the respective time points. Tissue samples were homogenized using ice-cold phosphate-buffered saline (pH 7.4), and the homogenates were stored below −70 °C until analysis. The total homogenate volume was three times the brain weight.
The concentration-time data from plasma and brain samples were used for pharmacokinetic analysis. Both plasma and brain samples were quantified using a fit-for-purpose LC-MS/MS method, with a lower limit of quantification (LLOQ) of 1.00 ng/mL for plasma and 2.00 ng/mL for the brain. The LC conditions were as follows: Thermo Scientific™ Accucore™ C18 column (2.7 µm, 50 mm × 2.1 mm), run time of 1.6 min, injection volume of 1 µL, and flow rate of 0.8 mL/min. The mobile phase consisted of 0.1% formic acid in acetonitrile (A) and 10 mM ammonium formate (B), with the following gradient: 0.00 min/95% B, 0.30 min/95% B, 0.50 min/5% B, 1.20 min/5% B, 1.40 min/95% B, and 1.60 min/95% B.

Row | SMILES | effect on HexCer levels [1] | effect on GCase enzymatic activity in lysates [2] | Kp at […] ([3]; male, C57BL/6, brain/plasma, iv, 0.25 h) | Kp at 2 h ([3]; male, C57BL/6, brain/plasma, iv, 2 h) | Kp at 8 h ([3]; male, C57BL/6, brain/plasma, iv, 8 h) | concentration at […] ([3]; male, C57BL/6, plasma, iv, 0.25 h) [ng/mL] | concentration at 2 h ([3]; male, C57BL/6, plasma, iv, 2 h) [ng/mL] | concentration at 8 h ([3]; male, C57BL/6, plasma, iv, 8 h) [ng/mL] | Brain Concentration ([3]; 2 h) [n/g] | Brain Concentration ([3]; 8 h) [n/g]
1 | CN(Cc1ccccc1)Cc1nc(N)nc(Nc2cccc(Br)c2)n1 [Compound 2] | ineffective in lowering sphingolipid levels | displayed inhibitory effects | – | – | – | – | – | – | – | –
2 | CN(C(=O)c1cc(N)cc(Nc2cccc3c2OCO3)n1)c1ccccc1 [Compound 3] | successfully decreased HexCer levels | without altering its enzymatic function | 4.37 | 3.29 | 1.16 | 1970 | 65.1 | 11.4 | 221.14 | 13.64
